The results in this text go back to ChEMBL document CHEMBL5223101, “Evolution of 3-(4-hydroxyphenyl)indoline-2-one as a scaffold for potent and selective anticancer activity” (RSC Med Chem, 2022).

The nature of this assay: Anticancer activity against human ECC-1 cells assessed as cell death at 1 uM by tryphan blue staining based cell counter analysis relative to control.

Molecules are shown by their SMILES.

Take `Cc1cccc2c1NC(=O)C2(c1ccc(O)cc1)c1ccc(O)cc1`: the cell death at 1 µM is less than 20%.
